Data from US12391733B2, “Stapled intracellular-targeting antimicrobial peptides to treat infection” (priority 2016, dated 2025).
Like-named read-outs stand apart in the source and are kept apart here. Positions of bridges follow the written chain, without caps; N, C: chain ends. Non-standard residues stand in square brackets, D forms with d. Residues, ends and D or L forms follow the SMILES beside them. R8 = C=CCCCCCC[C@@](C)(N)C(=O)O; S5 = C=CCCC[C@](C)(N)C(=O)O

Tests used:
E. coli = assay type: cell-based, Escherichia coli; conditions: for Antimicrobial Activity NIC (μg/ml) E. coli: Table 1, microbroth dilution, refined MHB, 20-24 hours at 37° C.
Description: (§1) Antimicrobial Activity Assay The following microbroth dilution protocol was adapted to determine the MIC of each peptide. First, Mueller-Hinton broth (MHB) was passed through an anion exchange column to remove polyanionic species and generate refined MHB. This refined broth was then used in the standard microbroth dilution protocol devised by Hancock et al. for 96 well plates. […] Briefly, bacterial cells were grown overnight in refined MHB at 37° C. and then diluted and allowed to grow again for several hours. Serial dilutions of peptide stocks in water (10 μl) were prepared using clear round-bottom polypropylene 96-well plates. Then 90 μl of bacteria in refined MHB was added to give a final inoculum of 5×10^5 CFU/ml. The plates were then covered with porous tape to reduce evaporation, and incubated for 20-24 hours at 37° C.

B. cereus = assay type: cell-based
Description: as §1

P. aeruginosa = assay type: cell-based
Description: as §1

MRSA = assay type: cell-based
Description: as §1

S. Aureus = assay type: cell-based
Description: as §1

[1] = tested on: human red blood cells (RBCs); assay type: cell-based; conditions: for % Hemolysis at 50 μg/ml: red cells of human, 1 h
Excerpt: One of the key obstacles that have long impeded the use of AMPs in systemic infections such as sepsis is their tendency to lyse human cells, such as red blood cells (RBCs). Thus, it is critical to minimize hemolytic activity as much as possible to achieve a therapeutic window. […] Of note, in those circumstances where hydrocarbon staples increase hemolytic activity due to increasing hydrophobicity, the alkene moiety can be modified, e.g., by dihydroxylation, to install hydrophilic residues and potentially mitigate hemolysis.
Hemolytic Activity Assay For the determination of hemolytic activity, the following protocol was applied: human blood samples were centrifuged to isolate red blood cells (RBCs), which were then washed and suspended in phosphate-buffered saline to yield a 1% (v/v) suspension. This suspension was then added to serial dilutions of peptide stocks in water in clear round-bottom polypropylene 96-well plates and the plates incubated for 1 hour at 37° C. After incubation, the plates were centrifuged and the supernatant isolated to determine the amount of hemoglobin released using a spectrophotometer (570 nm). The minimum hemolytic concentration (MHC) was determined by assessing the peptide concentration at which there was less than 1% hemoglobin release.

circular dichroism = conditions: 10 mM phosphate buffer; pH 7.4; ns °C; 100 uM

Row | Compound | % Hemolysis at 50 μg/ml [1] [%] | helicity (circular dichroism) [%] | Antimicrobial Activity NIC (μg/ml) E. coli (E. coli) [µg/mL] | further results
1 | CC(C)C[C@H](NC(=O)[C@H](CC(C)C)NC(=O)[C@H](CCCNC(=N)N)NC(=O)[C@H](Cc1c[nH]cn1)NC(=O)[C@@H](NC(=O)[C@H](CCCNC(=N)N)NC(=O)CNC(=O)[C@@H](NC(=O)[C@@H]1CCCN1C(=O)[C@H](Cc1c[nH]c2ccccc12)NC(=O)[C@H](CCC(N)=O)NC(=O)[C@H](CC(C)C)NC(=O)[C@]1(C)CCCC=CCCC[C@](C)(NC(=O)[C@H](CCCNC(=N)N)NC(=O)[C@@H](N)[C@@H](C)O)C(=O)N[C@@H](CO)C(=O)N[C@@H](CCCNC(=N)N)C(=O)N[C@@H](C)C(=O)N1)C(C)C)C(C)C)C(=O)N[C@@H](CCCNC(=N)N)C(=O)N[C@@H](CCCCN)C(N)=O [BFStap(i + 4)11] (H-TR[S5]SRA[S5]LQWPVGRVHRLLRK-NH2; staple 3-7) | 3.1 | 8 | – | Antimicrobial Activity MIC (μg/ml) E. coli (E. coli; Table 2): 6.25 µg/mL; Antimicrobial Activity MIC (μg/ml) B. cereus (B. cereus; Table 2): 25 µg/mL; Antimicrobial Activity MIC (μg/ml) P. aeruginosa (P. aeruginosa; Table 2): 12.5 µg/mL; Antimicrobial Activity MIC (μg/ml) MRSA (MRSA; Table 2): >50 µg/mL; Antimicrobial Activity MIC (μg/ml) S. Aureus (S. Aureus; Table 2): 50 µg/mL; hemolytic activity (in words) [1]: low hemolytic activity
2 | CC(C)C[C@H](NC(=O)CNC(=O)[C@H](C)NC(=O)[C@H](CCCNC(=N)N)NC(=O)[C@H](CO)NC(=O)[C@H](CO)NC(=O)[C@H](CCCNC(=N)N)NC(=O)[C@@H](N)[C@@H](C)O)C(=O)N[C@]1(C)CCCCCCC=CCCC[C@@](C)(C(=O)N[C@@H](CCCNC(=N)N)C(=O)N[C@@H](CC(C)C)C(=O)N[C@@H](CC(C)C)C(=O)N[C@@H](CCCNC(=N)N)C(=O)N[C@@H](CCCCN)C(N)=O)NC(=O)[C@H](C(C)C)NC(=O)[C@H](CCCNC(=N)N)NC(=O)CNC(=O)[C@H](C(C)C)NC(=O)[C@@H]2CCCN2C(=O)[C@H](Cc2c[nH]c3ccccc23)NC1=O [BFStap(i + 7)4] (H-TRSSRAGL[R8]WPVGRV[S5]RLLRK-NH2; staple 9-16; N-terminus and C-terminus assumed) | 57.0 | 2.4 | 3.1 | –
3 | CC(C)C[C@H](NC(=O)[C@H](CC(C)C)NC(=O)[C@H](CCCNC(=N)N)NC(=O)[C@H](Cc1c[nH]cn1)NC(=O)[C@@H](NC(=O)[C@]1(C)CCCC=CCCCCCC[C@@](C)(NC(=O)[C@H](C)NC(=O)[C@H](CCCNC(=N)N)NC(=O)[C@H](CO)NC(=O)[C@H](CO)NC(=O)[C@H](CCCNC(=N)N)NC(=O)[C@@H](N)[C@@H](C)O)C(=O)N[C@@H](CC(C)C)C(=O)N[C@@H](CCC(N)=O)C(=O)N[C@@H](Cc2c[nH]c3ccccc23)C(=O)N2CCC[C@H]2C(=O)N[C@@H](C(C)C)C(=O)NCC(=O)N1)C(C)C)C(=O)N[C@@H](CCCNC(=N)N)C(=O)N[C@@H](CCCCN)C(N)=O [BFStap(i + 7)6] (H-TRSSRA[R8]LQWPVG[S5]VHRLLRK-NH2; staple 7-14) | 9.5 | 7.3 | – | Antimicrobial Activity MIC (μg/ml) E. coli (E. coli): 6.25 µg/mL; Antimicrobial Activity MIC (μg/ml) B. cereus (B. cereus): 12.5 µg/mL; Antimicrobial Activity MIC (μg/ml) P. aeruginosa (P. aeruginosa): 12.5 µg/mL; Antimicrobial Activity MIC (μg/ml) MRSA (MRSA): >50 µg/mL; Antimicrobial Activity MIC (μg/ml) S. Aureus (S. Aureus): 25 µg/mL
4 | CC(C)C[C@@H]1NC(=O)CNC(=O)[C@](C)(NC(=O)[C@H](CCCNC(=N)N)NC(=O)[C@H](CO)NC(=O)[C@H](CO)NC(=O)[C@H](CCCNC(=N)N)NC(=O)[C@@H](N)[C@@H](C)O)CCCCCCC=CCCC[C@@](C)(C(=O)N[C@@H](CCCNC(=N)N)C(=O)N[C@H](C(=O)N[C@@H](Cc2c[nH]cn2)C(=O)N[C@@H](CCCNC(=N)N)C(=O)N[C@@H](CC(C)C)C(=O)N[C@@H](CC(C)C)C(=O)N[C@@H](CCCNC(=N)N)C(=O)N[C@@H](CCCCN)C(N)=O)C(C)C)NC(=O)[C@H](C(C)C)NC(=O)[C@@H]2CCCN2C(=O)[C@H](Cc2c[nH]c3ccccc23)NC(=O)[C@H](CCC(N)=O)NC1=O [BFStap(i + 7)7] (H-TRSSR[R8]GLQWPV[S5]RVHRLLRK-NH2; staple 6-13; N-terminus and C-terminus assumed) | 3.0 | 11.6 | 22.9 | –
5 | CC(C)C[C@@H]1NC(=O)CNC(=O)[C@H](C)NC(=O)[C@H](CCCNC(=N)N)NC(=O)[C@H](CO)NC(=O)[C@H](CO)NC(=O)[C@](C)(NC(=O)[C@@H](N)[C@@H](C)O)CCCCCCC=CCCC[C@@](C)(C(=O)N[C@@H](Cc2c[nH]c3ccccc23)C(=O)N2CCC[C@H]2C(=O)N[C@H](C(=O)NCC(=O)N[C@@H](CCCNC(=N)N)C(=O)N[C@H](C(=O)N[C@@H](Cc2c[nH]cn2)C(=O)N[C@@H](CCCNC(=N)N)C(=O)N[C@@H](CC(C)C)C(=O)N[C@@H](CC(C)C)C(=O)N[C@@H](CCCNC(=N)N)C(=O)N[C@@H](CCCCN)C(N)=O)C(C)C)C(C)C)NC1=O [BFStap(i + 7)9] (H-T[R8]SSRAGL[S5]WPVGRVHRLLRK-NH2; staple 2-9; N-terminus and C-terminus assumed) | 4.3 | 0 | 41.7 | –
6 | CC(C)C[C@H](NC(=O)[C@H](CC(C)C)NC(=O)[C@H](CCCNC(=N)N)NC(=O)[C@H](Cc1c[nH]cn1)NC(=O)[C@@H](NC(=O)[C@H](CCCNC(=N)N)NC(=O)CNC(=O)[C@@H](NC(=O)[C@@H]1CCCN1C(=O)[C@H](Cc1c[nH]c2ccccc12)NC(=O)[C@H](CCC(N)=O)NC(=O)[C@]1(C)CCCC=CCCCCCC[C@@](C)(N)C(=O)N[C@@H](CCCNC(=N)N)C(=O)N[C@@H](CO)C(=O)N[C@@H](CO)C(=O)N[C@@H](CCCNC(=N)N)C(=O)N[C@@H](C)C(=O)NCC(=O)N1)C(C)C)C(C)C)C(=O)N[C@@H](CCCNC(=N)N)C(=O)N[C@@H](CCCCN)C(N)=O [BFStap(i + 7)10] (H-[R8]RSSRAG[S5]QWPVGRVHRLLRK-NH2; staple 1-8) | 2.3 | 0 | >100 | –
